Test [1] has as its system C57BL/6 mice. Briefly: Immunization, anti-GFP Ig isotyping ELISA. Format: in vivo. Particulars: after primary and booster immunizations, serum week 7. As to the method: Q11 microgels bearing βTail-GFP or βTail-cut were prepared as described above, except the materials were incubated at 4 deg C., rather than room temperature. GFP content in the microgels was analyzed fluorimetrically as described above, and the concentration of GFP in the microgels was used as the basis for βTail-GFP dose in the PBS group. Similarly, cutinase content in the microgels was analyzed with the μABCA assay kit (Pierce), according to the manufacturer's instructions, and βTail-cut dose in the microgels was used as the basis for βTail-cut dose in PBS group. Endotoxin content of all vaccines was analyzed with the Limulus Amoebocyte Lysate assay kit (Lonza) according to the manufacturer's instructions immediately before immunization, and all materials were below the upper limit of 1 EU/mL. Female C57BL/6 mice (6-8 weeks old, Taconic Farms, Ind.) were each given two 50 μL subcutaneous injections near the shoulder blades for each primary and booster immunization, similar to previously reported methods (Hudalla 2013). […]
For all isotyping ELISAs, following overnight coating with 1 μg/mL βTmutant-GFP in PBS or PBS, all plates were washed 3 times with 0.5% Tween-20 in PBS. […] Absorbance was then measured at 450 nm with a SpectraMax M5 plate reader.
On the technique in general: ELISA stands for enzyme-linked immunosorbent assay.

Test [2] relates to Q11 microgels. As to the kind of experiment: Q11 microgel fluorescence microscopy. As to the method: Lyophilized Q11 was dissolved in deionized water at a final concentration of 10 mM by vortexing for 5 min. Aqueous Q11 solutions were diluted 10-fold with 1×PBS containing GFP (Vector Labs cat# MB-0752), βTmutant-GFP, or one or more βTail fusion proteins at a total protein concentration between 0.25-1.5 μM, or tryptophan-terminated βTail (W-βTail) at a concentration between 10-100 μM. These solutions were then incubated under static conditions for nanofiber assembly, or on a LabNet Rocker 35 rocker table (speed setting 4) (New Jersey) to induce microgel formation.
Q11 microgel fluorescence was analyzed using a Zeiss Axioscope inverted epifluorescent microscope. Dapi filters were used to visualize βTail-GFPuv; FITC filters were used to visualize βTail-eGFP; and TRITC filters were used to visualize βTail-dsRED. Fluorescence emission of any protein with the inappropriate filter (e.g. βTail-GFPuv with FITC) was negligible (FIG. 5). Due to differences in the quantum efficiency of each protein, exposure time was adjusted until the grayscale image intensity of microgels containing 0.33 μM βTail-GFP, βTail-eGFP, or βTail-dsRED alone was similar (e.g. 0.75 sec for βTail-GFP, 1.5 sec for βTail-eGFP, and 2.5 sec for βTail-dsRED). […]

The text below walks through data of patent publication US9200082B2, “Methods and compositions involving fibrillizing polypeptides for nanofibers” (The University of Chicago, priority 2013, dated 2015).

In the case of “βTail-GFP: recombinant fusion of βTail, Gly-Ser linker, GFPuv and His6 expressed in E. coli; SEQ ID NO. 65”, in test [1], the “serum Ig isotype profile” value is reported as “a more balanced IgM/IgG1 isotype profile”. For the same substance, the “fluorescence (activity) after integration into Q11 nanofibers” value in test [2] is recorded as “fluorescence was not perturbed when integrated into Q11 nanofibers”.
